The CheMixHub viscosity set
± gives the uncertainty stated by the source.

Experiment: xn = mol fraction of the nth substance listed

Nc1cccc(Cl)c1 + Brc1ccccc1
100 kPa
Conditions | viscosity [mPa·s]
313.15 K, x1 = 0.6782 | 2.875 ± 0.1
318.15 K, x1 = 0.0902 | 1.155 ± 0.1

CCC(=O)O + C1CCCCC1
303.15 K, 101 kPa
Conditions | viscosity [mPa·s]
x2 = 0.1973 | 0.8074 ± 0.0096
x2 = 0.286 | 0.771 ± 0.0092
x2 = 0.384 | 0.7319 ± 0.0087
x2 = 0.4987 | 0.7121 ± 0.0085
x2 = 0.5994 | 0.7197 ± 0.0086
x2 = 0.6998 | 0.7155 ± 0.0085
x2 = 0.8991 | 0.7582 ± 0.009

CCC(=O)O + C1CCOC1
298.15 K, 101 kPa
Conditions | viscosity [mPa·s]
x2 = 0.1025 | 1.067 ± 0.009
x2 = 0.2043 | 1.069 ± 0.009
x2 = 0.3057 | 1.033 ± 0.0087
x2 = 0.4065 | 0.9675 ± 0.0082
x2 = 0.5067 | 0.8745 ± 0.0074
x2 = 0.6065 | 0.7835 ± 0.0067
x2 = 0.7056 | 0.6858 ± 0.0059
x2 = 0.8043 | 0.5947 ± 0.0052
x2 = 0.9024 | 0.5179 ± 0.0045

CCC(=O)O + C1COCO1
298.15 K, 101 kPa
Conditions | viscosity [mPa·s]
x2 = 0.1 | 1.018 ± 0.0086
x2 = 0.2 | 1.003 ± 0.0085
x2 = 0.3 | 0.9794 ± 0.0083
x2 = 0.4 | 0.9457 ± 0.008
x2 = 0.5 | 0.9011 ± 0.0076
x2 = 0.6 | 0.8454 ± 0.0072
x2 = 0.7 | 0.788 ± 0.0067
x2 = 0.8 | 0.7223 ± 0.0062
x2 = 0.9 | 0.6544 ± 0.0056

CC12CCC(CC1)C(C)(C)O2 + C=CC(C)(O)CCC=C(C)C
viscosity [mPa·s], 101.33 kPa
Conditions | 298.15 K | 313.15 K
x1 = 0.0536 | 4.296 ± 0.035 | 2.489 ± 0.02
x1 = 0.1357 | 4.062 ± 0.033 | 2.401 ± 0.02
x1 = 0.2205 | 3.835 ± 0.031 | 2.316 ± 0.019
x1 = 0.3081 | 3.614 ± 0.029 | 2.236 ± 0.018
x1 = 0.4288 | 3.347 ± 0.027 | 2.138 ± 0.018
x1 = 0.562 | 3.093 ± 0.025 | 2.048 ± 0.017
x1 = 0.605 | 3.019 ± 0.025 | 2.023 ± 0.017
x1 = 0.6809 | 2.9 ± 0.024 | 1.983 ± 0.016
x1 = 0.8027 | 2.74 ± 0.022 | 1.933 ± 0.016
x1 = 0.8783 | 2.66 ± 0.022 | 1.91 ± 0.016
x1 = 0.9599 | 2.591 ± 0.021 | 1.892 ± 0.016

CCC(=O)O + CC#N
101 kPa
Conditions | viscosity [mPa·s]
298.15 K, x1 = 0.0727 | 0.3871 ± 0.022
298.15 K, x1 = 0.1499 | 0.4326 ± 0.023
298.15 K, x1 = 0.2322 | 0.49 ± 0.024
298.15 K, x1 = 0.3199 | 0.5588 ± 0.025
298.15 K, x1 = 0.4136 | 0.6378 ± 0.026
298.15 K, x1 = 0.5141 | 0.7247 ± 0.027
298.15 K, x1 = 0.6221 | 0.8156 ± 0.029
298.15 K, x1 = 0.7383 | 0.9048 ± 0.031
298.15 K, x1 = 0.864 | 0.9833 ± 0.032
298.35 K, x1 = 0.00118 | 0.3554 ± 0.0076
298.36 K, x1 = 0.000675 | 0.3524 ± 0.0075
298.37 K, x1 = 0.001631 | 0.3536 ± 0.0075
299.33 K, x1 = 0.002851 | 0.3563 ± 0.0076
301.03 K, x1 = 0.00118 | 0.3451 ± 0.0074
301.05 K, x1 = 0.000675 | 0.3437 ± 0.0073
301.96 K, x1 = 0.002851 | 0.3511 ± 0.0075
302.04 K, x1 = 0.001631 | 0.3472 ± 0.0074
303.03 K, x1 = 0.00118 | 0.338 ± 0.0072
303.04 K, x1 = 0.000675 | 0.3378 ± 0.0072
304.04 K, x1 = 0.001631 | 0.3356 ± 0.0072
304.09 K, x1 = 0.002851 | 0.3401 ± 0.0073
305.01 K, x1 = 0.00118 | 0.3316 ± 0.0071
305.04 K, x1 = 0.000675 | 0.3319 ± 0.0071
305.99 K, x1 = 0.002851 | 0.3324 ± 0.0071
306.1 K, x1 = 0.001631 | 0.3288 ± 0.007
308.03 K, x1 = 0.00118 | 0.3228 ± 0.0069
308.04 K, x1 = 0.000675 | 0.3223 ± 0.0069
308.15 K, x1 = 0.0727 | 0.3411 ± 0.022
308.15 K, x1 = 0.1499 | 0.3841 ± 0.022
308.15 K, x1 = 0.2322 | 0.4373 ± 0.023
308.15 K, x1 = 0.3199 | 0.4999 ± 0.024
308.15 K, x1 = 0.4136 | 0.5703 ± 0.025
308.15 K, x1 = 0.5141 | 0.646 ± 0.026
308.15 K, x1 = 0.6221 | 0.7227 ± 0.027
308.15 K, x1 = 0.7383 | 0.7943 ± 0.029
308.15 K, x1 = 0.864 | 0.8513 ± 0.03
309 K, x1 = 0.002851 | 0.3236 ± 0.0069
309.06 K, x1 = 0.001631 | 0.3198 ± 0.0068
311.01 K, x1 = 0.000675 | 0.3134 ± 0.0067
311.01 K, x1 = 0.00118 | 0.3139 ± 0.0067
311.96 K, x1 = 0.002851 | 0.3161 ± 0.0067
312.06 K, x1 = 0.001631 | 0.3112 ± 0.0066
318.15 K, x1 = 0.0727 | 0.3007 ± 0.021
318.15 K, x1 = 0.1499 | 0.345 ± 0.022
318.15 K, x1 = 0.2322 | 0.3948 ± 0.022
318.15 K, x1 = 0.3199 | 0.4493 ± 0.023
318.15 K, x1 = 0.4136 | 0.5074 ± 0.024
318.15 K, x1 = 0.5141 | 0.567 ± 0.025
318.15 K, x1 = 0.6221 | 0.6251 ± 0.026
318.15 K, x1 = 0.7383 | 0.6772 ± 0.027
318.15 K, x1 = 0.864 | 0.7168 ± 0.027

Nc1cccc(Cl)c1 + CC(=O)c1ccccc1
viscosity [mPa·s], 100 kPa
Conditions | x1 = 0.0807 | x1 = 0.1719 | x1 = 0.2629 | x1 = 0.3608 | x1 = 0.4656 | x1 = 0.5646 | x1 = 0.6658 | x1 = 0.7765 | x1 = 0.8859
303.15 K | 1.647 ± 0.1 | 1.812 ± 0.1 | 1.993 ± 0.1 | 2.206 ± 0.1 | 2.459 ± 0.1 | 2.723 ± 0.1 | 3.022 ± 0.1 | 3.386 ± 0.1 | 3.788 ± 0.1
308.15 K | 1.538 ± 0.1 | 1.688 ± 0.1 | 1.85 ± 0.1 | 2.041 ± 0.1 | 2.266 ± 0.1 | 2.5 ± 0.1 | 2.764 ± 0.1 | 3.084 ± 0.1 | 3.436 ± 0.1
313.15 K | 1.38 ± 0.1 | 1.515 ± 0.1 | 1.66 ± 0.1 | 1.83 ± 0.1 | 2.031 ± 0.1 | 2.239 ± 0.1 | 2.474 ± 0.1 | 2.758 ± 0.1 | 3.069 ± 0.1
318.15 K | 1.218 ± 0.1 | 1.337 ± 0.1 | 1.466 ± 0.1 | 1.616 ± 0.1 | 1.793 ± 0.1 | 1.976 ± 0.1 | 2.183 ± 0.1 | 2.433 ± 0.1 | 2.707 ± 0.1

ClCCCCCl + CC(C)(C)O
viscosity [mPa·s], 101 kPa
Conditions | x1 = 0.1005 | x1 = 0.2009 | x1 = 0.2964 | x1 = 0.435 | x1 = 0.5026 | x1 = 0.602 | x1 = 0.7061 | x1 = 0.8038 | x1 = 0.9014
298.15 K | 2.618 ± 0.025 | 1.826 ± 0.018 | 1.482 ± 0.014 | 1.315 ± 0.012 | 1.257 ± 0.012 | 1.202 ± 0.011 | 1.18 ± 0.011 | 1.182 ± 0.011 | 1.208 ± 0.011
313.15 K | 1.495 ± 0.019 | 1.18 ± 0.013 | 1.035 ± 0.01 | 0.9459 ± 0.0096 | 0.9313 ± 0.0093 | 0.9139 ± 0.009 | 0.916 ± 0.009 | 0.9291 ± 0.0092 | 0.9613 ± 0.0095

Nc1cccc(Cl)c1 + CC(C)(C)O
viscosity [mPa·s], 101 kPa
Conditions | x1 = 0.0912 | x1 = 0.1842 | x1 = 0.279 | x1 = 0.3758 | x1 = 0.4745 | x1 = 0.5753 | x1 = 0.6782 | x1 = 0.7832 | x1 = 0.8904
303.15 K | 3.097 ± 0.28 | 3.238 ± 0.29 | 3.382 ± 0.3 | 3.525 ± 0.31 | 3.659 ± 0.32 | 3.784 ± 0.33 | 3.901 ± 0.34 | 4.013 ± 0.35 | 4.127 ± 0.36
308.15 K | 2.819 ± 0.25 | 2.953 ± 0.26 | 3.085 ± 0.28 | 3.213 ± 0.29 | 3.333 ± 0.3 | 3.445 ± 0.31 | 3.546 ± 0.31 | 3.644 ± 0.32 | 3.742 ± 0.33
313.15 K | 2.283 ± 0.21 | 2.423 ± 0.22 | 2.562 ± 0.23 | 2.697 ± 0.24 | 2.828 ± 0.25 | 2.954 ± 0.26 | 3.075 ± 0.27 | 3.192 ± 0.28 | 3.308 ± 0.29
318.15 K | 1.875 ± 0.17 | 2.015 ± 0.19 | 2.153 ± 0.2 | 2.289 ± 0.21 | 2.419 ± 0.22 | 2.544 ± 0.23 | 2.665 ± 0.24 | 2.781 ± 0.25 | 2.899 ± 0.26

C1C[C@@H]2[C@H]3CC[C@H](C3)[C@@H]2C1 + CC(C)CC(C)(C)C
viscosity [mPa·s], 100 kPa
Conditions | x1 = 0.1 | x1 = 0.2002 | x1 = 0.3008 | x1 = 0.4003 | x1 = 0.5008 | x1 = 0.5997 | x1 = 0.6982 | x1 = 0.8002 | x1 = 0.9012
293.15 K | 0.593 ± 0.013 | 0.682 ± 0.015 | 0.795 ± 0.017 | 0.929 ± 0.02 | 1.102 ± 0.024 | 1.316 ± 0.028 | 1.582 ± 0.034 | 1.959 ± 0.043 | 2.405 ± 0.052
298.15 K | 0.563 ± 0.012 | 0.643 ± 0.014 | 0.745 ± 0.016 | 0.868 ± 0.019 | 1.026 ± 0.022 | 1.219 ± 0.026 | 1.457 ± 0.032 | 1.799 ± 0.039 | 2.194 ± 0.048
303.15 K | 0.532 ± 0.011 | 0.608 ± 0.013 | 0.701 ± 0.015 | 0.813 ± 0.017 | 0.958 ± 0.021 | 1.132 ± 0.024 | 1.347 ± 0.029 | 1.657 ± 0.036 | 2.008 ± 0.044
308.15 K | 0.506 ± 0.011 | 0.574 ± 0.012 | 0.661 ± 0.014 | 0.764 ± 0.016 | 0.896 ± 0.019 | 1.056 ± 0.023 | 1.251 ± 0.027 | 1.534 ± 0.033 | 1.844 ± 0.04
313.15 K | 0.483 ± 0.01 | 0.546 ± 0.012 | 0.626 ± 0.013 | 0.719 ± 0.015 | 0.842 ± 0.018 | 0.987 ± 0.021 | 1.164 ± 0.025 | 1.42 ± 0.031 | 1.701 ± 0.037
